Values quoted from earlier work, collected in patent publication US20240153607A1, “System for Determining Treatment Timing and Methods of Treatment Timed Based on Biological Process Indicators” (Arcascope Inc., priority 2022, published 2024).

Settings: cancer treatments in humans; [Hrushesky], [Lévi1990]

Compound | time of day at which the drug is most tolerable (toxicity by time of day)
COc1cccc2c1C(=O)c1c(O)c3c(c(O)c1C2=O)C[C@@](O)(C(=O)CO)C[C@@H]3O[C@H]1C[C@H](N)[C@H](O[C@@H]2CCCCO2)[C@H](C)O1 [theprubicin] | most tolerable in the morning
COc1cccc2c1C(=O)c1c(O)c3c(c(O)c1C2=O)C[C@@](O)(C(=O)CO)C[C@@H]3O[C@H]1C[C@H](N)[C@H](O)[C@H](C)O1 [doxorubicin] | most tolerable in the morning
